The test system of the experiment is B6C3F1 mice, B16 melanoma ip, median survival T/C. Put plainly: NCI In Vivo Anticancer Drug Screen. Data for tumor model B16 Melanoma (intraperitoneal) in B6C3F1 mice. Conditions: endpoint: median survival time, higher = longer survival. Summed up:
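Readout: survival or tumor size in treated mice relative to vehicle controls (T/C). Model uses transplantable tumors grown in mice.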

Where [1] appears, read: dose: 6.25 mg/kg/injection, schedule: Q01DX009 (ip), vehicle: suspension in saline.
[2] abbreviates: dose: 12.5 mg/kg/injection, schedule: Q01DX009 (ip), vehicle: saline.
[3] abbreviates: dose: 25.0 mg/kg/injection, schedule: Q01DX009 (ip), vehicle: saline.

“And” between values parts separate entries of the source, which are not always exact repeats. Identical values can stand only once. Toxic doses and inconclusive results are not listed.

As to `Cc1ccc(S(=O)(=O)OCCN(CCOS(=O)(=O)c2ccc(C)cc2)c2ccc(F)cc2)cc1`, the T/C was 109 % of control (dose: 3.12 mg/kg/injection, schedule: Q01DX009 (ip), vehicle: saline + alcohol); 109 % of control (dose: 6.25 mg/kg/injection, schedule: Q01DX009 (ip), vehicle: saline + alcohol); 108 % of control (dose: 12.5 mg/kg/injection, schedule: Q01DX009 (ip), vehicle: saline + alcohol); 111 % of control (dose: 25.0 mg/kg/injection, schedule: Q01DX009 (ip), vehicle: saline + alcohol); 108 % of control (dose: 50.0 mg/kg/injection, schedule: Q01DX009 (ip), vehicle: saline + alcohol).
As to `c1cc(-c2cc3ccc(C4=NCCN4)cc3[nH]2)ccc1C1=NCCN1`, the T/C (dose: 3.12 mg/kg/injection, schedule: Q01DX009 (ip), vehicle: saline) is 111 % of control; the T/C (dose: 3.12 mg/kg/injection, schedule: Q01DX009 (ip), vehicle: suspension in saline) is 104 % of control; the T/C (dose: 6.25 mg/kg/injection, schedule: Q01DX009 (ip), vehicle: saline) was 108 % of control; the T/C under setting [1] was 94 % of control; the T/C under setting [2] was 100 % of control; the T/C (dose: 12.5 mg/kg/injection, schedule: Q01DX009 (ip), vehicle: suspension in saline) was 96 % of control. Besides, under setting [3], the T/C is 95 % of control.
Take `CC1=C(CC/C(C)=C/CCC2=CCC(C3=CC(=O)OC3O)OC2O)C(C)(C)CCC1` (stereo not drawn): the T/C is 90 % of control (dose: 3.0 mg/kg/injection, schedule: Q01DX009 (ip), vehicle: Klucel (hydroxypropylcellulose) (HPC)) and 90 % of control (dose: 6.0 mg/kg/injection, schedule: Q01DX009 (ip), vehicle: Klucel (hydroxypropylcellulose) (HPC)).
For the molecule `Nc1nc(-c2ccc(S(=O)(=O)O)cc2)cc(=O)[nH]1`, the T/C was 100 % of control (dose: 3.31 mg/kg/injection, schedule: Q01DX009 (ip), vehicle: saline); 105 % of control (dose: 6.62 mg/kg/injection, schedule: Q01DX009 (ip), vehicle: saline); 105 % of control (dose: 13.25 mg/kg/injection, schedule: Q01DX009 (ip), vehicle: saline); 96 % of control and 104 % of control (dose: 26.5 mg/kg/injection, schedule: Q01DX009 (ip), vehicle: saline); 104 % of control (dose: 53.0 mg/kg/injection, schedule: Q01DX009 (ip), vehicle: saline); 110 % of control (dose: 106.0 mg/kg/injection, schedule: Q01DX009 (ip), vehicle: saline).
`c1ccc([Te][Te]c2ccccc2)cc1`: the T/C is 92 % of control and 94 % of control (dose: 3.0 mg/kg/injection, schedule: Q01DX009 (ip), vehicle: saline with Tween-80); 98 % of control and 100 % of control and 106 % of control (dose: 6.0 mg/kg/injection, schedule: Q01DX009 (ip), vehicle: saline with Tween-80); 112 % of control and 122 % of control and 98 % of control (dose: 12.0 mg/kg/injection, schedule: Q01DX009 (ip), vehicle: saline with Tween-80); 114 % of control and 121 % of control and 102 % of control (dose: 24.0 mg/kg/injection, schedule: Q01DX009 (ip), vehicle: saline with Tween-80); 113 % of control (dose: 48.0 mg/kg/injection, schedule: Q01DX009 (ip), vehicle: saline with Tween-80).
Consider `CCc1ncnc2cc(OCC3CO3)c(OC)cc12` (stereo not drawn), for which the T/C under setting [1] was 118 % of control and the T/C (dose: 50.0 mg/kg/injection, schedule: Q01DX009 (ip), vehicle: suspension in saline) is 117 % of control.
For the molecule `COC1=C(OC)C(=O)C(Sc2ccc3ccccc3c2)=CC1=O`, the T/C is, setting by setting: (dose: 6.25 mg/kg/injection, schedule: Q01DX009 (ip), vehicle: saline with Tween-80) 86 % of control and 97 % of control; (dose: 12.5 mg/kg/injection, schedule: Q01DX009 (ip), vehicle: saline with Tween-80) 95 % of control; (dose: 25.0 mg/kg/injection, schedule: Q01DX009 (ip), vehicle: saline with Tween-80) 96 % of control; (dose: 50.0 mg/kg/injection, schedule: Q01DX009 (ip), vehicle: saline with Tween-80) 86 % of control.
As for `CC(NC(=O)c1ccccc1)C(=O)O` (stereo not drawn), the T/C was 97 % of control (dose: 40.0 mg/kg/injection, schedule: Q01DX009 (ip), vehicle: saline with Tween-80) and 90 % of control (dose: 80.0 mg/kg/injection, schedule: Q01DX009 (ip), vehicle: saline with Tween-80).
Take `O=NN(CCCl)C(=O)NC1CCCCC1`: the T/C by setting is: (dose: 3.12 mg/kg/injection, schedule: Q01DX001 (ip), vehicle: carboxymethylcellulose (CMC)) 103 % of control; (dose: 3.12 mg/kg/injection, schedule: Q01DX005 (ip), vehicle: carboxymethylcellulose (CMC)) 103 % of control; (dose: 6.25 mg/kg/injection, schedule: Q01DX001 (ip), vehicle: carboxymethylcellulose (CMC)) 99 % of control; (dose: 6.25 mg/kg/injection, schedule: Q01DX005 (ip), vehicle: carboxymethylcellulose (CMC)) 112 % of control; (dose: 12.5 mg/kg/injection, schedule: Q01DX001 (ip), vehicle: carboxymethylcellulose (CMC)) 98 % of control; (dose: 12.5 mg/kg/injection, schedule: Q01DX005 (ip), vehicle: carboxymethylcellulose (CMC)) 114 % of control. In addition, the T/C was 86 % of control (dose: 32.0 mg/kg/injection, schedule: Q01DX009 (ip), vehicle: Klucel (hydroxypropylcellulose) (HPC)); 177 % of control (dose: 50.0 mg/kg/injection, schedule: Q01DX001 (ip), vehicle: carboxymethylcellulose (CMC)); 172 % of control (dose: 50.0 mg/kg/injection, schedule: Q01DX005 (ip), vehicle: carboxymethylcellulose (CMC)); 204 % of control (dose: 100.0 mg/kg/injection, schedule: Q01DX001 (ip), vehicle: carboxymethylcellulose (CMC)); 107 % of control (dose: 100.0 mg/kg/injection, schedule: Q01DX005 (ip), vehicle: carboxymethylcellulose (CMC)).
Turning to `COc1cc2c(c(OC)c1OC)-c1c(cc3c(c1OC)OCO3)CC(C)C(C)(O)C2OC(=O)c1ccccc1` (stereo not drawn), the T/C is 107 % of control (dose: 25.0 mg/kg/injection, schedule: Q01DX009 (ip), vehicle: saline + Tween-80 + alcohol); 98 % of control (dose: 50.0 mg/kg/injection, schedule: Q01DX009 (ip), vehicle: saline + Tween-80 + alcohol); 115 % of control (dose: 100.0 mg/kg/injection, schedule: Q01DX009 (ip), vehicle: saline + Tween-80 + alcohol); 110 % of control (dose: 200.0 mg/kg/injection, schedule: Q01DX009 (ip), vehicle: saline + Tween-80 + alcohol).
With `COc1ccccc1N=Nc1cc(S(=O)(=O)O)c2ccccc2c1O`, the T/C reads like this: under setting [2], 95 % of control; under setting [3], 92 % of control; (dose: 50.0 mg/kg/injection, schedule: Q01DX009 (ip), vehicle: saline) 98 % of control; (dose: 200.0 mg/kg/injection, schedule: Q01DX009 (ip), vehicle: saline with Tween-80) 87 % of control.
For the molecule `COC1C(N)C(OC2C(Oc3cccc4c(O)c5c(=O)oc6ccc(C)c7c(=O)oc(c34)c5c67)OC(C)C(O)C2(C)O)OC(C)C1O` (stereo not drawn), the T/C reads like this: (dose: 1.09 mg/kg/injection, schedule: Q01DX009 (ip), vehicle: DMSO) 226 % of control; (dose: 1.25 mg/kg/injection, schedule: Q01DX009 (ip), vehicle: other) 179 % of control; (dose: 1.81 mg/kg/injection, schedule: Q01DX009 (ip), vehicle: DMSO) 255 % of control; (dose: 2.5 mg/kg/injection, schedule: Q01DX009 (ip), vehicle: other) 227 % of control; (dose: 3.0 mg/kg/injection, schedule: Q01DX009 (ip), vehicle: DMSO) 244 % of control; (dose: 5.0 mg/kg/injection, schedule: Q01DX009 (ip), vehicle: DMSO) 326 % of control. Also, the T/C was 227 % of control (dose: 5.0 mg/kg/injection, schedule: Q01DX009 (ip), vehicle: other); 190 % of control (dose: 8.4 mg/kg/injection, schedule: Q01DX009 (ip), vehicle: DMSO); 179 % of control (dose: 10.0 mg/kg/injection, schedule: Q01DX009 (ip), vehicle: other).
Consider `COc1cccc2c1C(=O)c1c(O)c3c(c(O)c1C2=O)C[C@@](O)(C(C)=O)C[C@@H]3OC1CC(N2CCCCC2)C(O)C(C)O1` (stereo partly drawn), for which the T/C was 105 % of control (dose: 0.78 mg/kg/injection, schedule: Q01DX001 (ip), vehicle: water); 115 % of control and 121 % of control (dose: 1.56 mg/kg/injection, schedule: Q01DX001 (ip), vehicle: water); 116 % of control and 121 % of control (dose: 3.12 mg/kg/injection, schedule: Q01DX001 (ip), vehicle: water).
Consider `CN(C)C(=O)SC1=C(c2c(Cl)cccc2Cl)C(=O)c2ccccc21`, for which the T/C runs as follows: (dose: 25.0 mg/kg/injection, schedule: Q01DX009 (ip), vehicle: Klucel (hydroxypropylcellulose) (HPC)) 98 % of control; (dose: 50.0 mg/kg/injection, schedule: Q01DX009 (ip), vehicle: Klucel (hydroxypropylcellulose) (HPC)) 96 % of control; (dose: 100.0 mg/kg/injection, schedule: Q01DX009 (ip), vehicle: Klucel (hydroxypropylcellulose) (HPC)) 101 % of control; (dose: 200.0 mg/kg/injection, schedule: Q01DX009 (ip), vehicle: Klucel (hydroxypropylcellulose) (HPC)) 101 % of control.

Values taken from PubChem BioAssay AID200 (DTP/NCI, 2004).
